Data published in ChEMBL document CHEMBL3044614, “Synthesis and pharmacological evaluation of m-terphenyl amines as cyclooxygenase inhibitors” (Med Chem Res, 2007).
Calls of active or inactive are those of the source. The rule behind the calls is not given here.

Key:
[1] = target: T1, Prostaglandin G/H synthase 2 (Homo sapiens, UniProt P35354); experiment: Inhibition of Homo sapiens (human) cyclooxygenase-2
T1 sequence (P35354 whole entry): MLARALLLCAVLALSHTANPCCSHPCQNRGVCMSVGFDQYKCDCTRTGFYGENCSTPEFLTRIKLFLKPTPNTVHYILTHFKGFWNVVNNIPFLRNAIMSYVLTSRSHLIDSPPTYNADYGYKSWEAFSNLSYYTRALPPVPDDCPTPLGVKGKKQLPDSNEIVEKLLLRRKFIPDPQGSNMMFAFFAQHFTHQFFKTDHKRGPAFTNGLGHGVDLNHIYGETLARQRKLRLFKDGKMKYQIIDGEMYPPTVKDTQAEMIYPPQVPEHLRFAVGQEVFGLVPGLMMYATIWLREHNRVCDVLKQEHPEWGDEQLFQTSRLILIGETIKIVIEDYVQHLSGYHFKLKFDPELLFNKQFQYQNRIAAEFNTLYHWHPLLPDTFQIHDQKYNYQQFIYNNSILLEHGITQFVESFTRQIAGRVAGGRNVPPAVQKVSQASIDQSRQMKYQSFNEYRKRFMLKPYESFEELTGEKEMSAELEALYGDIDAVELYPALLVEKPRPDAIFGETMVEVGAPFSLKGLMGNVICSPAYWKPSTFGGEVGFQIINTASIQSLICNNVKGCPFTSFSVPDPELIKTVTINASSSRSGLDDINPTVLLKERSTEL

[2] = target: T2, Prostaglandin G/H synthase 1 (Homo sapiens, UniProt P23219); experiment: Inhibition of COX-1 (unknown origin)
[3] = target: T2, Prostaglandin G/H synthase 1; experiment: Inhibition of cyclooxygenase-1 in Homo sapiens (human) whole blood assessed as thromboxane B2 production at 10 uM after 1 hr by enzyme immunoassay
[4] = target: T3, Prostaglandin G/H synthase 2 (Homo sapiens) (UniProt P35354); experiment: Inhibition of cyclooxygenase-2 in Homo sapiens (human) whole blood assessed as LPS-induced PGE2 production at 10 uM incubated 15 min prior to LPS challenge measured after 24 hr by enzyme immunoassay
T3 sequence (whole entry): T1 sequence (P35354 whole entry)

[5] = target: T2, Prostaglandin G/H synthase 1; experiment: Inhibition of cyclooxygenase-1 in Homo sapiens (human) whole blood assessed as thromboxane B2 production at 100 uM after 1 hr by enzyme immunoassay
[6] = target: T3, Prostaglandin G/H synthase 2 (Homo sapiens); experiment: Inhibition of cyclooxygenase-2 in Homo sapiens (human) whole blood assessed as LPS-induced PGE2 production at 100 uM incubated 15 min prior to LPS challenge measured after 24 hr by enzyme immunoassay

T2 sequence (P23219 whole entry): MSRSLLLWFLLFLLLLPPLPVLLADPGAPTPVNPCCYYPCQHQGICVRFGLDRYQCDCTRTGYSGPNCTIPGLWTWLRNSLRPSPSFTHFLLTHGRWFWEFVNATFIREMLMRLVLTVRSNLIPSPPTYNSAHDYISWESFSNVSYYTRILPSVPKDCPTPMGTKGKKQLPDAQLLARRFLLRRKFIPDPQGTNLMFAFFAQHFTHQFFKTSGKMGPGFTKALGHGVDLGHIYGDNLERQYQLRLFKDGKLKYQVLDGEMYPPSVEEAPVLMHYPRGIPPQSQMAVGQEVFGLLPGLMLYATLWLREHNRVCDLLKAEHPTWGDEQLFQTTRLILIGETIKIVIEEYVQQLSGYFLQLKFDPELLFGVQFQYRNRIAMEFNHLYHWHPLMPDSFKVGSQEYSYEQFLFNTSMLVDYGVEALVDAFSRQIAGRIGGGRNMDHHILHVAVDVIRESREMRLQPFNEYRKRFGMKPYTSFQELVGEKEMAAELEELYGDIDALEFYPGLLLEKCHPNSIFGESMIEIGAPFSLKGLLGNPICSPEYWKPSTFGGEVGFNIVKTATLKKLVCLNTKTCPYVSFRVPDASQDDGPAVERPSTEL

Row | IC50 [1] [µM] | IC50 [2] [µM] | inhibition [3] | inhibition [4] | inhibition [5] | inhibition [6] | Structure (SMILES)
1 | 120 | 17 | – | – | – | – | Cc1c(CC(=O)O)cc(-c2ccccc2)cc1-c1ccccc1
2 | – | – | 23% | inactive | 85% | inactive | CS(=O)(=O)c1ccc(-c2cc(N)cc(-c3ccccc3)c2)cc1
3 | – | – | 20% | inactive | 88% | inactive | CCOc1ccc(-c2cc(N)cc(-c3ccccc3)c2)cc1
4 | – | – | 63% | 85% | 97% | 98% | Nc1cc(-c2ccccc2)cc(-c2ccc(Cl)cc2)c1
5 | – | – | 19% | 76% | 93% | 99% | Nc1cc(-c2ccc(Cl)cc2)cc(-c2ccc(Cl)cc2)c1
6 | – | – | 56% | 68% | 98% | 92% | Nc1cc(-c2ccccc2)cc(-c2ccccc2)c1
7 | – | – | inactive | inactive | 92% | 78% | COc1ccc(-c2cc(N)cc(-c3ccccc3)c2)cc1
8 | – | – | 27% | 57% | 87% | 86% | Cc1ccc(-c2cc(N)cc(-c3ccc(C)cc3)c2)cc1
9 | – | – | inactive | inactive | inactive | inactive | CCOc1ccc(-c2cc(N)cc(-c3ccc(OCC)cc3)c2)cc1
10 | – | – | 29% | inactive | 92% | inactive | CSc1ccc(-c2cc(N)cc(-c3ccccc3)c2)cc1
11 | – | – | 46% | 49% | 96% | 95% | Cc1ccc(-c2cc(N)cc(-c3ccccc3)c2)cc1
